Data reported in patent publication US12599136B2, “Substituted isophthalic acid diamides and their use as herbicides” (Bayer Aktiengesellschaft, priority 2020, dated 2026).

Assays:
Type in all cases: in vivo
Abutilon theophrasti [1] = assay: Pre-emergence herbicidal action against ABUTH; settings: visual score after 3 weeks vs untreated controls
In short: (§1)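 Seeds sown in sandy loam, soil-covered; compound sprayed on soil surface pre-emergence. Application: WP/EC, 600–800 l/ha, 0.2% wetting agent. Readout: visual % damage at 3 weeks.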

Alopecurus myosuroides [2] = assay: Pre-emergence herbicidal action against ALOMY; settings: visual score after 3 weeks vs untreated controls
In short: as §1

Amaranthus retroflexus [3] = assay: Pre-emergence herbicidal action against AMARE; settings: visual score after 3 weeks vs untreated controls
In short: as §1

Avena fatua [4] = assay: Pre-emergence herbicidal action against AVEFA; settings: visual score after 3 weeks vs untreated controls
In short: as §1

Cyperus esculentus [5] = assay: Pre-emergence herbicidal action against CYPES; settings: visual score after 3 weeks vs untreated controls
In short: as §1

Echinochloa crus-galli [6] = assay: Pre-emergence herbicidal action against ECHCG; settings: visual score after 3 weeks vs untreated controls
In short: as §1

Matricaria inodora [7] = assay: Pre-emergence herbicidal action against MATIN; settings: visual score after 3 weeks vs untreated controls
In short: as §1

Pharbitis purpurea [8] = assay: Pre-emergence herbicidal action against PHBPU; settings: 320 g/ha; visual score after 3 weeks vs untreated controls
In short: as §1

Hordeum murinum [9] = assay: Pre-emergence herbicidal action against HORMU; settings: 320 g/ha; visual score after 3 weeks vs untreated controls
In short: as §1

Lolium rigidum [10] = assay: Pre-emergence herbicidal action against LOLRI; settings: 320 g/ha
In short: as §1

Polygonum convolvulus [11] = assay: Pre-emergence herbicidal action against POLCO; settings: 320 g/ha
In short: as §1

Setaria viridis [12] = assay: Pre-emergence herbicidal action against SETVI
In short: as §1

Stellaria media [13] = assay: Pre-emergence herbicidal action against STEME
In short: as §1

Veronica persica [14] = assay: Pre-emergence herbicidal action against VERPE
In short: as §1

Viola tricolor [15] = assay: Pre-emergence herbicidal action against VIOTR
In short: as §1

Abutilon theophrasti [16] = assay: Post-emergence herbicidal action against ABUTH
In short: (§2)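 Percent herbicidal action is rated by eye about 3 weeks after treatment against untreated controls, where 100% means dead plants and 0% means like controls. Plants in sandy loam are sprayed on green parts at the one-leaf stage with aqueous WP or EC preparations at 600 to 800 l/ha plus 0.2% wetting agent.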

Alopecurus myosuroides [17] = assay: Post-emergence herbicidal action against ALOMY
In short: as §2

Amaranthus retroflexus [18] = assay: Post-emergence herbicidal action against AMARE; settings: visual assessment about 3 weeks after treatment
In short: as §2

Avena fatua [19] = assay: Post-emergence herbicidal action against AVEFA; settings: visual assessment about 3 weeks after treatment
In short: as §2

Cyperus esculentus [20] = assay: Post-emergence herbicidal action against CYPES; settings: visual assessment about 3 weeks after treatment
In short: as §2

Echinochloa crus-galli [21] = assay: Post-emergence herbicidal action against ECHCG; settings: visual assessment about 3 weeks after treatment
In short: as §2

Matricaria inodora [22] = assay: Post-emergence herbicidal action against MATIN; settings: visual assessment about 3 weeks after treatment
In short: as §2

Pharbitis purpurea [23] = assay: Post-emergence herbicidal action against PHBPU; settings: visual assessment about 3 weeks after treatment
In short: as §2

Hordeum murinum [24] = assay: Post-emergence herbicidal action against HORMU
In short: as §2

Lolium rigidum [25] = assay: Post-emergence herbicidal action against LOLRI; settings: 80 g/ha
In short: as §2

Polygonum convolvulus [26] = assay: Post-emergence herbicidal action against POLCO; settings: 80 g/ha, visual assessment about 3 weeks after treatment
In short: as §2

Setaria viridis [27] = assay: Post-emergence herbicidal action against SETVI; settings: visual assessment about 3 weeks after treatment
In short: as §2

Stellaria media [28] = assay: Post-emergence herbicidal action against STEME; settings: visual assessment about 3 weeks after treatment
In short: as §2

Veronica persica [29] = assay: Post-emergence herbicidal action against VERPE; settings: visual assessment about 3 weeks after treatment
In short: as §2

Viola tricolor [30] = assay: Post-emergence herbicidal action against VIOTR
In short: as §2

CCn1nnnc1NC(=O)c1ccc(C(F)(F)F)c(C(=O)N(C)CC2CC2)c1Cl [Example 2-126]
90%: Pre-emergence action against AMARE (Amaranthus retroflexus [3]; 20 g/ha) | Pre-emergence action against CYPES (Cyperus esculentus [5]; 320 g/ha) | Pre-emergence action against MATIN (Matricaria inodora [7]; 80 g/ha) | Pre-emergence action against LOLRI (Lolium rigidum [10]) | Pre-emergence action against STEME (Stellaria media [13]; 320 g/ha) | Pre-emergence action against VERPE (Veronica persica [14]; 320 g/ha) | Post-emergence action against ALOMY (Alopecurus myosuroides [17]; 20 g/ha) | Post-emergence action against CYPES in % (Cyperus esculentus [20]; 80 g/ha) | Post-emergence action against ECHCG in % (Echinochloa crus-galli [21]; 5 g/ha) | Post-emergence action against PHBPU in % (Pharbitis purpurea [23]; 5 g/ha) | Post-emergence action against HORMU in % (Hordeum murinum [24]; 20 g/ha) | Post-emergence action against VERPE in % (Veronica persica [29]; 80 g/ha)
100%: Pre-emergence action against ABUTH (Abutilon theophrasti [1]; 20 g/ha) | Pre-emergence action against ABUTH (Abutilon theophrasti [1]; 80 g/ha) | Pre-emergence action against ABUTH (Abutilon theophrasti [1]; Dosage column 320 g/ha (heading prints 3200 g/ha)) | Pre-emergence action against ALOMY (Alopecurus myosuroides [2]; 320 g/ha) | Pre-emergence action against AMARE (Amaranthus retroflexus [3]; 80 g/ha) | Pre-emergence action against AMARE (Amaranthus retroflexus [3]; 320 g/ha) | Pre-emergence action against AVEFA (Avena fatua [4]; 320 g/ha) | Pre-emergence action against ECHCG (Echinochloa crus-galli [6]; 320 g/ha) | Pre-emergence action against MATIN (Matricaria inodora [7]; 320 g/ha) | Pre-emergence action against PHBPU (Pharbitis purpurea [8]) | Pre-emergence action against HORMU (Hordeum murinum [9]) | Pre-emergence action against POLCO (Polygonum convolvulus [11]) | Pre-emergence action against SETVI (Setaria viridis [12]; 80 g/ha) | Pre-emergence action against SETVI (Setaria viridis [12]; 320 g/ha) | Pre-emergence action against VIOTR (Viola tricolor [15]; 80 g/ha) | Pre-emergence action against VIOTR (Viola tricolor [15]; 320 g/ha) | Post-emergence action against ABUTH (Abutilon theophrasti [16]; 20 g/ha) | Post-emergence action against ABUTH (Abutilon theophrasti [16]; 80 g/ha) | Post-emergence action against ALOMY (Alopecurus myosuroides [17]; 80 g/ha) | Post-emergence action against AMARE in % (Amaranthus retroflexus [18]; 5 g/ha) | Post-emergence action against AMARE in % (Amaranthus retroflexus [18]; 20 g/ha) | Post-emergence action against AMARE in % (Amaranthus retroflexus [18]; 80 g/ha) | Post-emergence action against AVEFA in % (Avena fatua [19]; 20 g/ha) | Post-emergence action against AVEFA in % (Avena fatua [19]; 80 g/ha) | Post-emergence action against ECHCG in % (Echinochloa crus-galli [21]; 20 g/ha) | Post-emergence action against ECHCG in % (Echinochloa crus-galli [21]; 80 g/ha) | Post-emergence action against MATIN in % (Matricaria inodora [22]; 20 g/ha) | Post-emergence action against MATIN in % (Matricaria inodora [22]; 80 g/ha) | Post-emergence action against PHBPU in % (Pharbitis purpurea [23]; 20 g/ha) | Post-emergence action against PHBPU in % (Pharbitis purpurea [23]; 80 g/ha) | Post-emergence action against HORMU in % (Hordeum murinum [24]; 80 g/ha) | Post-emergence action against SETVI in % (Setaria viridis [27]; 5 g/ha) | Post-emergence action against SETVI in % (Setaria viridis [27]; 20 g/ha) | Post-emergence action against SETVI in % (Setaria viridis [27]; 80 g/ha) | Post-emergence action against STEME in % (Stellaria media [28]; 5 g/ha) | Post-emergence action against STEME in % (Stellaria media [28]; 20 g/ha) | Post-emergence action against STEME in % (Stellaria media [28]; 80 g/ha) | Post-emergence action against VIOTR in % (Viola tricolor [30]; 5 g/ha) | Post-emergence action against VIOTR in % (Viola tricolor [30]; 20 g/ha) | Post-emergence action against VIOTR in % (Viola tricolor [30]; 80 g/ha)
80%: Pre-emergence action against ALOMY (Alopecurus myosuroides [2]; 80 g/ha) | Pre-emergence action against AVEFA (Avena fatua [4]; 80 g/ha) | Pre-emergence action against CYPES (Cyperus esculentus [5]; 80 g/ha) | Pre-emergence action against ECHCG (Echinochloa crus-galli [6]; 80 g/ha) | Pre-emergence action against MATIN (Matricaria inodora [7]; 20 g/ha) | Pre-emergence action against STEME (Stellaria media [13]; 20 g/ha) | Pre-emergence action against VERPE (Veronica persica [14]; 80 g/ha) | Pre-emergence action against VIOTR (Viola tricolor [15]; 20 g/ha) | Post-emergence action against ABUTH (Abutilon theophrasti [16]; 5 g/ha) | Post-emergence action against ALOMY (Alopecurus myosuroides [17]; 5 g/ha) | Post-emergence action against CYPES in % (Cyperus esculentus [20]; 20 g/ha) | Post-emergence action against MATIN in % (Matricaria inodora [22]; 5 g/ha) | Post-emergence action against HORMU in % (Hordeum murinum [24]; 5 g/ha) | Post-emergence action against LOLRI in % (Lolium rigidum [25]) | Post-emergence action against POLCO in % (Polygonum convolvulus [26]) | Post-emergence action against VERPE in % (Veronica persica [29]; 20 g/ha)
